Measurements: PubChem BioAssay (NCI)
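Dose response: 5 concentrations. Exposure: 48 h. Format: 96-well plates. Endpoint: linear interpolation; highest concentration if not reached. GI50 marks 50% less growth. TGI is the concentration that stops growth completely.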

What was measured:
Test in all cases: growth of human tumour cells (NCI), 48 h
MOLT-4 leukemia = system: MOLT-4 leukemia
TK-10 renal = system: TK-10 renal
MCF7 breast = system: MCF7 breast
UACC-257 melanoma = system: UACC-257 melanoma
A549 NSCLC = system: A549 NSCLC
HCC-2998 colon = system: HCC-2998 colon
SF-539 CNS = system: SF-539 CNS
OVCAR-4 ovarian = system: OVCAR-4 ovarian
SK-OV-3 ovarian = system: SK-OV-3 ovarian
MDA-MB-231 breast = system: MDA-MB-231 breast
A498 renal = system: A498 renal
HS 578T breast = system: HS 578T breast
OVCAR-5 ovarian = system: OVCAR-5 ovarian
RPMI-8226 leukemia = system: RPMI-8226 leukemia
UO-31 renal = system: UO-31 renal
NCI-H226 lung = system: NCI-H226 lung
T-47D breast = system: T-47D breast
SN12C renal = system: SN12C renal
SF-268 CNS = system: SF-268 CNS
SNB-19 CNS = system: SNB-19 CNS
HL-60(TB) leukemia = system: HL-60(TB) leukemia
COLO 205 colon = system: COLO 205 colon
RXF 393 renal = system: RXF 393 renal
786-0 renal = system: 786-0 renal
MALME-3M melanoma = system: MALME-3M melanoma
NCI-H460 lung = system: NCI-H460 lung
MDA-MB-435 = system: MDA-MB-435
NCI-H522 lung = system: NCI-H522 lung
ACHN renal = system: ACHN renal
CCRF-CEM leukemia = system: CCRF-CEM leukemia
OVCAR-8 ovarian = system: OVCAR-8 ovarian
HOP-92 NSCLC = system: HOP-92 NSCLC
SF-295 CNS = system: SF-295 CNS
HCT-15 colon = system: HCT-15 colon
BT-549 breast = system: BT-549 breast
EKVX NSCLC = system: EKVX NSCLC
PC-3 prostate = system: PC-3 prostate
U251 CNS = system: U251 CNS
HT29 colon = system: HT29 colon
IGROV1 ovarian = system: IGROV1 ovarian
SNB-75 CNS = system: SNB-75 CNS
K-562 leukemia = system: K-562 leukemia
HOP-62 NSCLC = system: HOP-62 NSCLC
LOX IMVI melanoma = system: LOX IMVI melanoma
SK-MEL-5 melanoma = system: SK-MEL-5 melanoma
M14 melanoma = system: M14 melanoma
SK-MEL-28 melanoma = system: SK-MEL-28 melanoma
SW-620 colon = system: SW-620 colon
SR leukemia = system: SR leukemia
UACC-62 melanoma = system: UACC-62 melanoma
OVCAR-3 ovarian = system: OVCAR-3 ovarian
SK-MEL-2 melanoma = system: SK-MEL-2 melanoma
HCT-116 colon = system: HCT-116 colon
KM12 colon = system: KM12 colon

Cc1cc(N(CCNc2ccnc3cc(Cl)ccc23)Cc2cccs2)nc(Cl)n1
GI50 (MOLT-4 leukemia): 2.48 µM
TGI (MOLT-4 leukemia): 5.57 µM
GI50 (TK-10 renal): 1.62 µM
TGI (TK-10 renal): 2.99 µM
GI50 (MCF7 breast): 1.53 µM
TGI (MCF7 breast): 3.13 µM
GI50 (UACC-257 melanoma): 1.84 µM
TGI (UACC-257 melanoma): 3.56 µM
GI50 (A549 NSCLC): 1.43 µM
TGI (A549 NSCLC): 4.5 µM
GI50 (HCC-2998 colon): 1.74 µM
TGI (HCC-2998 colon): 3.4 µM
GI50 (SF-539 CNS): 1.83 µM
TGI (SF-539 CNS): 3.29 µM
GI50 (OVCAR-4 ovarian): 1.39 µM
TGI (OVCAR-4 ovarian): 2.94 µM
GI50 (SK-OV-3 ovarian): 1.8 µM
TGI (SK-OV-3 ovarian): 3.24 µM
GI50 (MDA-MB-231 breast): 1.49 µM
TGI (MDA-MB-231 breast): 3.06 µM
GI50 (A498 renal): 1.68 µM
TGI (A498 renal): 4.15 µM
GI50 (HS 578T breast): 2.1 µM
TGI (HS 578T breast): 4.68 µM
GI50 (OVCAR-5 ovarian): 1.64 µM
TGI (OVCAR-5 ovarian): 3.53 µM
GI50 (RPMI-8226 leukemia): 1.97 µM
TGI (RPMI-8226 leukemia): 4.55 µM
GI50 (UO-31 renal): 1.3 µM
TGI (UO-31 renal): 2.6 µM
GI50 (NCI-H226 lung): 1.83 µM
TGI (NCI-H226 lung): 3.83 µM
GI50 (T-47D breast): 1.12 µM
TGI (T-47D breast): 2.88 µM
GI50 (SN12C renal): 1.58 µM
TGI (SN12C renal): 3.19 µM
GI50 (SF-268 CNS): 1.83 µM
TGI (SF-268 CNS): 4.04 µM
GI50 (SNB-19 CNS): 2.11 µM
TGI (SNB-19 CNS): 5.62 µM
GI50 (HL-60(TB) leukemia): 1.99 µM
TGI (HL-60(TB) leukemia): 3.84 µM
GI50 (COLO 205 colon): 1.72 µM
TGI (COLO 205 colon): 3.54 µM
GI50 (RXF 393 renal): 1.45 µM
TGI (RXF 393 renal): 2.92 µM
GI50 (786-0 renal): 0.429 µM
TGI (786-0 renal): 1.63 µM
GI50 (MALME-3M melanoma): 1.62 µM
TGI (MALME-3M melanoma): 3.17 µM
GI50 (NCI-H460 lung): 1.13 µM
TGI (NCI-H460 lung): 2.58 µM
GI50 (MDA-MB-435): 1.56 µM
TGI (MDA-MB-435): 3.05 µM
GI50 (NCI-H522 lung): 1.44 µM
TGI (NCI-H522 lung): 3.55 µM
GI50 (ACHN renal): 1.44 µM
TGI (ACHN renal): 2.75 µM
GI50 (CCRF-CEM leukemia): 2.07 µM
TGI (CCRF-CEM leukemia): 5.41 µM
GI50 (OVCAR-8 ovarian): 2.21 µM
TGI (OVCAR-8 ovarian): 5.33 µM
GI50 (HOP-92 NSCLC): 1.16 µM
TGI (HOP-92 NSCLC): 2.61 µM
GI50 (SF-295 CNS): 1.32 µM
TGI (SF-295 CNS): 2.77 µM
GI50 (HCT-15 colon): 1.49 µM
TGI (HCT-15 colon): 2.99 µM
GI50 (BT-549 breast): 1.87 µM
TGI (BT-549 breast): 3.94 µM
GI50 (EKVX NSCLC): 2.08 µM
TGI (EKVX NSCLC): 7.38 µM
GI50 (PC-3 prostate): 1.69 µM
TGI (PC-3 prostate): 3.94 µM
GI50 (U251 CNS): 0.893 µM
TGI (U251 CNS): 2.28 µM
GI50 (HT29 colon): 1.45 µM
TGI (HT29 colon): 3.1 µM
GI50 (IGROV1 ovarian): 1.64 µM
TGI (IGROV1 ovarian): 3.28 µM
GI50 (SNB-75 CNS): 1.5 µM
TGI (SNB-75 CNS): 2.9 µM
GI50 (K-562 leukemia): 1.02 µM
TGI (K-562 leukemia): 3.47 µM
GI50 (HOP-62 NSCLC): 1.65 µM
TGI (HOP-62 NSCLC): 3.65 µM
GI50 (LOX IMVI melanoma): 1.47 µM
TGI (LOX IMVI melanoma): 2.89 µM
GI50 (SK-MEL-5 melanoma): 1.74 µM
TGI (SK-MEL-5 melanoma): 3.17 µM
GI50 (M14 melanoma): 1.54 µM
TGI (M14 melanoma): 3.19 µM
GI50 (SK-MEL-28 melanoma): 1.61 µM
TGI (SK-MEL-28 melanoma): 3.18 µM
GI50 (SW-620 colon): 1.4 µM
TGI (SW-620 colon): 3 µM
GI50 (SR leukemia): 1.02 µM
TGI (SR leukemia): 4.02 µM
GI50 (UACC-62 melanoma): 1.69 µM
TGI (UACC-62 melanoma): 3.19 µM
GI50 (OVCAR-3 ovarian): 1.43 µM
TGI (OVCAR-3 ovarian): 2.83 µM
GI50 (SK-MEL-2 melanoma): 1.84 µM
TGI (SK-MEL-2 melanoma): 3.54 µM
GI50 (HCT-116 colon): 0.526 µM
TGI (HCT-116 colon): 2 µM
GI50 (KM12 colon): 1.69 µM
TGI (KM12 colon): 3.29 µM
